Source: patent US10669290B2, “Beta-lactamase inhibitors” (priority 2012, dated 2020)

How the values were obtained:
Assay type in all cases: cell-based
[1] = system: S. aureus MSSA-7 PC-1; assay: Broth microdilution MIC, S. aureus MSSA-7; settings: Staphylococcus aureus, fixed piperacillin 4 μg/mL, CAMHB, 16-20 hours 37° C., read-out: MIC of exemplary compounds in presence of fixed β-lactams, Fixed Pip, S. aureus MSSA-7 PC-1
Source text: (§1) To determine the ability of test compounds to potentiate the inhibition of the growth of bacterial strains that produce beta-lactamase enzymes, classic cell based broth microdilution MIC assays were employed. Six bacteria strains producing beta-lactamase enzymes were used: E. coli expressing the Class A Extended Spectrum Beta-Lactamase (ESBL) CTX-M-15, E. cloacae expressing the Class C P99, K. pneumoniae expressing the Class A carbapenemase KPC-2, P. aeruginosa expressing the Class B carbapenemase VIM-2, K. pneumoniae expressing the class A carbapenemase KPC-2 and the class B carbapenemase VIM-4, and S. aureus producing the Class A penicillinase PC-1. The assay was conducted in Cation Adjusted Mueller Hinton Broth (CAMHB, BD #212322, BD Diagnostic Systems, Sparks, Md.). Bacteria strains were grown for 3-5 hours in CAMBH broth. Test compounds were added to a microtiter plate in 2-fold serial dilutions in CAMHB in a final concentration range of 32 μg/mL to 0.25 μg/ml. An overlay of CAMHB containing a Beta-lactam was added to the compounds at a final static concentration of 4 μg/ml. […] In addition to the titration of test compounds the MICs of a panel of control beta-lactams is also tested to ensure the strains are behaving consistently from test to test. Once the test compound and antibiotics are added the plates can be inoculated according to CLSI broth microdilution method. After inoculation the plates are incubated for 16-20 hours at 37° C. then the Minimal Inhibitory Concentration (MIC) of the test compound is determined visually.
(§2) Using the methodology described above in EXAMPLE III, exemplary compounds for Formula I or Formula Ia were evaluated for their ability to inhibit the growth of β-lactamase producing bacteria in the presence of a β-lactam antibiotic.

[2] = system: E. coli ESBL4 CTX-M-15; assay: Broth microdilution MIC, E. coli ESBL4; settings: Escherichia coli, ESBL4CTXM15; fixed ceftazidime 4 μg/mL, CAMHB, 16-20 hours 37° C.; read-out: MIC of exemplary compounds in presence of fixed β-lactams, Fixed CAZ, E. coli ESBL4 CTX-M-15
Source text: as §1, §2

[3] = system: P. aerug. Ps296 VIM-2; assay: Broth microdilution MIC, P. aeruginosa Ps296; settings: Pseudomonas aeruginosa; fixed meropenem 4 μg/mL, CAMHB, 16-20 hours 37° C.; read-out: MIC of exemplary compounds in presence of fixed β-lactams, Fixed Mero, P. aerug. Ps296 VIM-2
Source text: as §1, §2

[4] = system: K.P. 156319 KPC-3; assay: Broth microdilution MIC, K. pneumoniae 156319; settings: Klebsiella pneumoniae; fixed meropenem 4 μg/mL, CAMHB, 16-20 hours 37° C.; read-out: MIC of exemplary compounds in presence of fixed β-lactams, Fixed Mero, K.P. 156319 KPC-3
[5] = system: K.P. A-1797 KPC-2 VIM-4; assay: Broth microdilution MIC, K. pneumoniae A-1797; settings: Klebsiella pneumoniae; fixed meropenem 4 μg/mL, CAMHB, 16-20 hours 37° C.; read-out: MIC of exemplary compounds in presence of fixed β-lactams, Fixed Mero, K.P. A-1797 KPC-2 VIM-4
Source text: as §1, §2

[6] = system: E. cl 144200 p99 AmpC; assay: Broth microdilution MIC, E. cloacae 144200; settings: Enterobacter cloacae; fixed ceftazidime 4 μg/mL, CAMHB, 16-20 hours 37° C.; read-out: MIC of exemplary compounds in presence of fixed β-lactams, Fixed CAZ, E. cl 144200 p99 AmpC
Source text: as §1, §2

NCCC(N)[C@H]1CC[C@H](CC(=O)N[C@H]2Cc3cccc(C(=O)O)c3OB2O)CC1 (stereo partly drawn) [Example 76, (R)-3-(2-(trans-4-(1,3-diaminopropyl)cyclohexyl)acetamido)-2-hydroxy-3,4-dihydro-2H-benzo[e][1,2]oxaborinine-8-carboxylic acid] was tested, and the MIC [1] was < 4 µg/mL, the MIC [2] was < 4 µg/mL and the MIC [3] was 8 to 32 µg/mL. For the same compound, the MIC [4] was < 4 µg/mL, the MIC [5] was < 4 µg/mL and the MIC [6] was < 4 µg/mL.

O=C(C[C@H]1CC[C@H](N(Cc2ncc[nH]2)Cc2ncc[nH]2)CC1)N[C@H]1Cc2cccc(C(=O)O)c2OB1O [Example 69, (R)-3-(2-(trans-4-(bis((1H-imidazol-2-yl)methyl)amino)cyclohexyl)acetamido)-2-hydroxy-3,4-dihydro-2H-benzo[e][1,2]oxaborinine-8-carboxylic acid] was tested, and the MIC [1] was < 4 µg/mL, the MIC [2] was < 4 µg/mL and the MIC [3] was < 4 µg/mL. For the same compound, the MIC [4] was < 4 µg/mL, the MIC [5] was > 32 µg/mL and the MIC [6] was < 4 µg/mL.

For CN(C)CCN(C)[C@H]1CC[C@H](CC(=O)N[C@H]2Cc3cccc(C(=O)O)c3OB2O)CC1 [Example 23, (R)-3-(2-(trans-4-((2-(dimethylamino)ethyl)(methyl)amino)cyclohexyl)acetamido)-2-hydroxy-3,4-dihydro-2H-benzo[e][1,2]oxaborinine-8-carboxylic acid], the MIC [1] was < 4 µg/mL, the MIC [2] was < 4 µg/mL and the MIC [3] was > 32 µg/mL. The MIC [4] was < 4 µg/mL, the MIC [5] was > 32 µg/mL and the MIC [6] was < 4 µg/mL.

In the case of NC[C@H]1CC[C@H](C(=O)N[C@H]2Cc3cccc(C(=O)O)c3OB2O)CC1 [Example 1, (R)-3-(trans-4-(aminomethyl)cyclohexanecarboxamido)-2-hydroxy-3,4-dihydro-2H-benzo[e][1,2]oxaborinine-8-carboxylic acid], the MIC [1] is reported as 8 to 32 µg/mL, the MIC [2] is reported as < 4 µg/mL and the MIC [3] is reported as < 4 µg/mL. For the same compound, the MIC [4] was < 4 µg/mL, the MIC [5] was < 4 µg/mL and the MIC [6] was < 4 µg/mL.

For NC1CC(CC(=O)N[C@H]2Cc3cccc(C(=O)O)c3OB2O)C1 (stereo partly drawn) [Example 56, (R)-3-(2-(3-aminocyclobutyl)acetamido)-2-hydroxy-3,4-dihydro-2H-benzo[e][1,2]oxaborinine-8-carboxylic acid], the MIC [1] was < 4 µg/mL, the MIC [2] was < 4 µg/mL and the MIC [3] was < 4 µg/mL. The MIC [4] was < 4 µg/mL, the MIC [5] was < 4 µg/mL and the MIC [6] was < 4 µg/mL.

With O=C(C[C@H]1CC[C@H](NCc2cnc[nH]2)CC1)N[C@H]1Cc2cccc(C(=O)O)c2OB1O [Example 70, (R)-3-(2-(trans-4-((1H-imidazol-5-yl)methylamino)cyclohexyl)acetamido)-2-hydroxy-3,4-dihydro-2H-benzo[e][1,2]oxaborinine-8-carboxylic acid] the MIC [1] was < 4 µg/mL, the MIC [2] was < 4 µg/mL and the MIC [3] was < 4 µg/mL. The MIC [4] was < 4 µg/mL, the MIC [5] was 8 to 32 µg/mL and the MIC [6] was < 4 µg/mL.

For NCCCN[C@H]1CC[C@H](CC(=O)N[C@H]2Cc3cccc(C(=O)O)c3OB2O)CC1 [Example 60, (R)-3-(2-(trans-4-(3-aminopropylamino)cyclohexyl)acetamido)-2-hydroxy-3,4-dihydro-2H-benzo[e][1,2]oxaborinine-8-carboxylic acid], the MIC [1] was < 4 µg/mL, the MIC [2] was < 4 µg/mL and the MIC [3] was < 4 µg/mL. The MIC [4] was < 4 µg/mL, the MIC [5] was < 4 µg/mL and the MIC [6] was < 4 µg/mL.

In the case of NCCNC(=O)N[C@H]1CC[C@H](CC(=O)N[C@H]2Cc3cccc(C(=O)O)c3OB2O)CC1 [Example 59, (R)-3-(2-(trans-4-(3-(2-aminoethyl)ureido)cyclohexyl)acetamido)-2-hydroxy-3,4-dihydro-2H-benzo[e][1,2]oxaborinine-8-carboxylic acid], the MIC [1] is reported as < 4 µg/mL, the MIC [2] is reported as < 4 µg/mL and the MIC [3] is reported as < 4 µg/mL. The MIC [4] was < 4 µg/mL, the MIC [5] was 8 to 32 µg/mL and the MIC [6] was < 4 µg/mL.

O=C(C[C@H]1CC[C@H](N2C=NCC2)CC1)N[C@H]1Cc2cccc(C(=O)O)c2OB1O [Example 29, (R)-3-(2-(trans-4-(4,5-dihydro-1H-imidazol-1-yl)cyclohexyl)acetamido)-2-hydroxy-3,4-dihydro-2H-benzo[e][1,2]oxaborinine-8-carboxylic acid] was tested, and the MIC [1] was < 4 µg/mL, the MIC [2] was < 4 µg/mL and the MIC [3] was 8 to 32 µg/mL. The MIC [4] was < 4 µg/mL, the MIC [5] was > 32 µg/mL and the MIC [6] was < 4 µg/mL.

In the case of N[C@H]1CC[C@H](CC(=O)N[C@H]2Cc3cccc(C(=O)O)c3OB2O)CC1 [Example 6, (R)-3-(2-(trans-4-aminocyclohexyl)acetamido)-2-hydroxy-3,4-dihydro-2H-benzol[e][1,2]oxaborinine-8-carboxylic acid], the MIC [1] is reported as < 4 µg/mL, the MIC [2] is reported as < 4 µg/mL and the MIC [3] is reported as < 4 µg/mL. For the same compound, the MIC [4] was < 4 µg/mL, the MIC [5] was < 4 µg/mL and the MIC [6] was < 4 µg/mL.

CN(C)C[C@H]1CC[C@H](CC(=O)N(C)[C@H]2Cc3cccc(C(=O)O)c3OB2O)CC1 [Example 8, (R)-3-(2-(trans-4-((dimethylamino)methyl)cyclohexyl)-N-methylacetamido)-2-hydroxy-3,4-dihydro-2H-benzo[e][1,2]oxaborinine-8-carboxylic acid] was tested, and the MIC [1] was < 4 µg/mL, the MIC [2] was < 4 µg/mL and the MIC [3] was 8 to 32 µg/mL. For the same compound, the MIC [4] was 8 to 32 µg/mL, the MIC [5] was > 32 µg/mL and the MIC [6] was < 4 µg/mL.

For N[C@H](CO)CN[C@H]1CC[C@H](CC(=O)N[C@H]2Cc3cccc(C(=O)O)c3OB2O)CC1 [Example 67, (R)-3-(2-(trans-4-((S)-2-amino-3-hydroxypropylamino)cyclohexyl)acetamido)-2-hydroxy-3,4-dihydro-2H-benzol[e][1,2]oxaborinine-8-carboxylic acid], the MIC [1] was < 4 µg/mL, the MIC [2] was < 4 µg/mL and the MIC [3] was < 4 µg/mL. For the same compound, the MIC [4] was < 4 µg/mL, the MIC [5] was < 4 µg/mL and the MIC [6] was < 4 µg/mL.

In the case of O=C(C[C@H]1CC[C@H](NCCNCC2CC2)CC1)N[C@H]1Cc2cccc(C(=O)O)c2OB1O [Example 74, (R)-3-(2-(trans-4-(2-(cyclopropylmethylamino)ethylamino)cyclohexyl)acetamido)-2-hydroxy-3,4-dihydro-2H-benzo[e][1,2]oxaborinine-8-carboxylic acid], the MIC [1] is reported as < 4 µg/mL, the MIC [2] is reported as < 4 µg/mL and the MIC [3] is reported as < 4 µg/mL. For the same compound, the MIC [4] was < 4 µg/mL, the MIC [5] was < 4 µg/mL and the MIC [6] was < 4 µg/mL.

For CN(C)[C@H]1CC[C@H](CC(=O)N[C@H]2Cc3cccc(C(=O)O)c3OB2O)CC1 [Example 14, (R)-3-(2-(trans-4-(dimethylamino)cyclohexyl)acetamido)-2-hydroxy-3,4-dihydro-2H-benzo[e][1,2]oxaborinine-8-carboxylic acid], the MIC [1] was < 4 µg/mL, the MIC [2] was < 4 µg/mL and the MIC [3] was > 32 µg/mL. For the same compound, the MIC [4] was < 4 µg/mL, the MIC [5] was 8 to 32 µg/mL and the MIC [6] was < 4 µg/mL.

N=C(N)NC[C@H]1CC[C@H](CC(=O)N[C@H]2Cc3cccc(C(=O)O)c3OB2O)CC1 [Example 4, (R)-3-(2-(trans-4-(guanidinomethyl)cyclohexyl)acetamido)-2-hydroxy-3,4-dihydro-2H-benzo[e][1,2]oxaborinine-8-carboxylic acid] was tested, and the MIC [1] was < 4 µg/mL, the MIC [2] was < 4 µg/mL and the MIC [3] was < 4 µg/mL. The MIC [4] was < 4 µg/mL, the MIC [5] was 8 to 32 µg/mL and the MIC [6] was < 4 µg/mL.

O=C(C[C@H]1CC[C@H](NCCNCCO)CC1)N[C@H]1Cc2cccc(C(=O)O)c2OB1O [Example 61, (R)-2-hydroxy-3-(2-(trans-4-(2-(2-hydroxyethylamino)ethylamino)cyclohexyl)acetamido)-3,4-dihydro-2H-benzo[e][1,2]oxaborinine-8-carboxylic acid] was tested, and the MIC [1] was < 4 µg/mL, the MIC [2] was < 4 µg/mL and the MIC [3] was < 4 µg/mL. For the same compound, the MIC [4] was < 4 µg/mL, the MIC [5] was < 4 µg/mL and the MIC [6] was < 4 µg/mL.
